Several values for one entry are separate records, joined by “and”; a condition that tells them apart may be missing. Equal entries are not always repeated. Marks after values point to notes of the source that are not given here.
Experiments:
[1] = Distribution in plasma and brain tissues of rats; assay type: in vivo, Male SD rats; conditions: rat, 20mg/kg p.o.
Excerpt: The concentration of compound in the plasma and brain tissue samples was quantified by liquid chromatography-tandem mass spectrometry (LC-MS/MS).

[2] = tested on: Middle cerebral artery occlusion (MCAO) models of SD rata; assay: Rat MCAO model, 28-day dosing, grid walking test; assay type: in vivo, SD rats; conditions: Mean±SD
Protocol: (§1) Middle cerebral artery occlusion (MCAO) models of SD rata were constructed by using the suture occlusion method. The rats were administered with the test compound for 28 consecutive days. The pharmacodynamic evaluation on the test compound for cerebral stroke was obtained based on general observation and neurobehavioral assessment. […] The ECA was ligated. The ICA was temporarily occluded. Sutures were threaded at both the proximal end and the distal end of CCA. The distal end was securely ligated, and a loosely tied knot was placed at the proximal end. A small incision was made on the CCA between these two sutures. […] The threading was halted temporarily when reaching the artery clamp of ICA. The pre-ligation suture was further tightened. The artery clamp blocking the blood flow in the ICA was removed, allowing the suture occlusion to be advanced into the ICA until it entered the intracranial region. […] The insertion was stopped at the moment, and the time was recorded. The artery clamp on the CCA was removed and the incision was closed after no active bleeding was observed. The ischemic rats were placed at room temperature to keep their body temperature at 37°C, and anesthesia induction could be carried out 120min later. The suture was slowly and gradually withdrawn under anesthesia until the proximal end retracted into the ECA, thereby initiating reperfusion of the middle cerebral artery. Animals received the designated dosage immediately (within 10 min) after reperfusion. This dosing regimen continued once daily for a duration of 28 days, with the day of operation being defined as D1 (Day 0). […] After the completion of the 28-day dosing period, all surviving animals in the study were euthanized, and their brains were rapidly collected for pathological analysis. […] Table 8 Results of Grid Walking Test

[3] = tested on: Middle cerebral artery occlusion (MCAO) models of SD rata; assay: Rat MCAO model, 28-day dosing, pathological examination (restoration area, perfused blood vessels); assay type: in vivo, SD rats; conditions: for Proportion of samples showing good recovery (%): restoration area > 30%; for No. of erythrocyte-containing blood vessels ≤10: number of animals
Protocol: as §1, with “Test […] Table 10 Summary of Tissue Restoration in Each Group” for “Test”

[4] = tested on: Middle cerebral artery occlusion (MCAO) models of SD rats; assay: Rat MCAO model, 7 daily doses, TTC staining cerebral infarction; assay type: in vivo
Excerpt: Middle cerebral artery occlusion (MCAO) models of SD rats were constructed using the suture occlusion method to evaluate the neuroprotective effect of the compound on neurons of rats after cerebral ischemia-reperfusion. […] The ECA was ligated. The ICA was temporarily occluded. Sutures were threaded at both the proximal end and the distal end of CCA. The distal end was securely ligated, and a loosely tied knot was placed at the proximal end. A small incision was made on the CCA between these two sutures. […] The threading was halted temporarily when reaching the artery clamp of ICA. The pre-ligation suture was further tightened. The artery clamp blocking the blood flow in the ICA was removed, allowing the suture occlusion to be advanced into the ICA until it entered the intracranial region. […] The insertion was stopped at the moment, and the time was recorded. The artery clamp on the CCA was removed and the incision was closed after no active bleeding was observed. The ischemic rats were placed at room temperature to keep their body temperature at 37°C, and anesthesia induction could be carried out 120min later. The suture was slowly and gradually withdrawn when the rats were maintained under anesthesia, so that the proximal end of the suture returned to the ECA, thereby initiating reperfusion of the middle cerebral artery. […] A single dose was administered immediately after reperfusion (within 10 minutes), followed by one dose per day for a total of 7 consecutive doses (including the first dose). Except for the initial administration, all subsequent doses were given between 4:00 PM and 7:00 PM each day. […] Animals were euthanized 7 days after ischemia reperfusion, and the brains were rapidly taken, frozen, and dissected for TTC staining. The normal tissues were rose-red after staining, and the infarcted tissues were white. The infarct size (%) percentage, calculated as the weight of infarcted tissues to the weight of the whole brain, is used to evaluate the degree of cerebral ischemic injury in rats. […] Table 12 Cerebral infarct size and cerebral infarction inhibition rate of experimental animals

[5] = high dose 20mg/kg p.o. q.d. 28 days
[6] = high dose 20mg/kg p.o. q.d. 28 days, N = 12
[7] = low dose 6mg/kg p.o. q.d. 28 days
[8] = low dose 6mg/kg p.o. q.d. 28 days, N = 12
[9] = 60mg/kg p.o. q.d. 28 days, N = 14
[10] = 60mg/kg oral, 7 daily doses, 7 days after reperfusion, Mean±SD

Compound: CCC/C(O)=C1/C(=O)Oc2ccccc21 [Compound (I)]
- Measured value in brain tissues Concentration ([1]; 0.5 h): 8733.3 ng/g
- Measured value in plasma Concentration ([1]; 0.5 h): 241333.3 ng/mL
- Measured value in brain tissues Concentration ([1]; 1 h): 5726.7 ng/g
- Measured value in plasma Concentration ([1]; 1 h): 192333.3 ng/mL
- Measured value in brain tissues Concentration ([1]; 4h): 5030.0 ng/g
- Measured value in plasma Concentration ([1]; 4h): 182333.3 ng/mL
- Measured value in brain tissues Concentration ([1]; 24 h): 285.3 ng/g
- Measured value in plasma Concentration ([1]; 24 h): 23500.0 ng/mL
- Misstep frequency (times) ([2]; high dose 20mg/kg p.o. q.d., 1W after operation, 20 mg/kg): 4.23±1.44 times
- Misstep frequency (times) ([2]; high dose 20mg/kg p.o. q.d., 1W after operation, listed as compound (I), 20 mg/kg): 4.23±1.44 times
- Misstep frequency (times) ([2]; high dose 20mg/kg p.o. q.d., 2W after operation): 3.23± 2.56 times
- Misstep frequency (times) ([2]; high dose 20mg/kg p.o. q.d., 3W after operation): 2.50± 0.81 times
- Misstep frequency (times) ([2]; high dose 20mg/kg p.o. q.d., 4W after operation): 1.42± 1.11 times
- Misstep frequency (times) ([2]; low dose 6mg/kg p.o. q.d., 1W after operation, 6 mg/kg): 5.33± 2.33 times
- Misstep frequency (times) ([2]; low dose 6mg/kg p.o. q.d., 1W after operation, listed as compound (I), 6 mg/kg): 5.33±2.33 times
- Misstep frequency (times) ([2]; low dose 6mg/kg p.o. q.d., 2W after operation): 6.33± 3.53 times
- Misstep frequency (times) ([2]; low dose 6mg/kg p.o. q.d., 3W after operation): 4.38± 2.44 times
- Misstep frequency (times) ([2]; low dose 6mg/kg p.o. q.d., 4W after operation): 2.58± 1.55 times
- Proportion of erythrocyte-containing blood vessels>10 (%) [3, 5]: 92.3%
- Number of samples Restoration area > 30% [3, 6]: 9**
- Number of samples Restoration area ≤ 30% [3, 6]: 3
- Proportion of samples showing good recovery (%) [3, 5]: 75.0%
- Proportion of erythrocyte-containing blood vessels>10 (%) [3, 7]: 100%
- Number of samples Restoration area > 30% [3, 8]: 4
- Number of samples Restoration area ≤ 30% [3, 8]: 8
- Proportion of samples showing good recovery (%) [3, 7]: 33.3%
- No. of erythrocyte-containing blood vessels ≤10 ([3]; high dose 20mg/kg p.o. q.d. 28 days, N = 13): 1
- No. of erythrocyte-containing blood vessels ≤10 [3, 8]: 0

Compound: (Z)-3-(1-hydroxybutenyl)benzofuran-2-one tromethamine salt [Example 10]
- Cerebral infarction inhibition rate (%) ([4]; rat, in vivo): 26.236± 12.737% and 31.023± 11.150%
- Infarct Size (%) ([4]; rat, in vivo): 14.717±2.541 % and 13.762±2.225 %
- Infarct area weight ([4]; rat, in vivo): 0.183 ± 0.036 g and 0.176 ± 0.030 g

Compound: CCCCC1OC(=O)c2ccccc21 (centres unmarked) [Butylphthalide, butylphthalide, reference compound]
- Measured value in brain tissues Concentration ([1]; 0.5 h): 28.5 ng/g
- Measured value in plasma Concentration ([1]; 0.5 h): 26.0 ng/mL
- Measured value in brain tissues Concentration ([1]; 1 h): 22.8 ng/g
- Measured value in plasma Concentration ([1]; 1 h): 19.1 ng/mL
- Measured value in brain tissues Concentration ([1]; 4h): 10.2 ng/g
- Measured value in plasma Concentration ([1]; 4h): 7.2 ng/mL
- Measured value in plasma Concentration ([1]; 24 h): 1.7 ng/mL
- Misstep frequency (times) ([2]; 60mg/kg p.o. q.d., 1W after operation, listed as NBP): 7.37±3.03 times
- Misstep frequency (times) ([2]; 60mg/kg p.o. q.d., 2W after operation): 8.10± 2.97 times
- Misstep frequency (times) ([2]; 60mg/kg p.o. q.d., 3W after operation): 6.27± 2.890 times
- Misstep frequency (times) ([2]; 60mg/kg p.o. q.d., 4W after operation): 2.10± 1.46 times
- Proportion of erythrocyte-containing blood vessels>10 (%) ([3]; 60mg/kg p.o. q.d. 28 days): 93.3%
- Number of samples Restoration area > 30% [3, 9]: 3
- Number of samples Restoration area ≤ 30% [3, 9]: 11
- Proportion of samples showing good recovery (%) ([3]; 60mg/kg p.o. q.d. 28 days): 21.4%
- No. of erythrocyte-containing blood vessels ≤10 ([3]; 60mg/kg p.o. q.d. 28 days, N = 15): 1
- Cerebral infarction inhibition rate (%) [4, 10]: 28.624±14.597%
- Infarct Size (%) [4, 10]: 14.241±2.912%
- Infarct area weight [4, 10]: 0.175 ± 0.032 g
